Reference: ChEMBL document CHEMBL1201862, “PubChem BioAssay data set” (2004)
Active and inactive are the calls of the source.

Tests used:
[1] = target: T1, Voltage-gated N-type calcium channel alpha-1B subunit/Amyloid beta A4 precursor protein-binding family A member 1 (Homo sapiens, UniProt Q00975+Q02410); type: protein assay
[2] = growth suppression of beta-catenin-knockout colon cells, dose response, cell-based, HCT116, human colon tumor (AID 1045); type: functional;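 further: HCT116 colon tumor cells with beta catenin knocked out; cells exposed to compound for 60 hours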
[3] = THP-1 cell cytotoxicity, dose response, cytotoxicity control for non-replicating M. tuberculosis project (AID 489025); type: functional
[4] = target: T1, Voltage-gated N-type calcium channel alpha-1B subunit/Amyloid beta A4 precursor protein-binding family A member 1; type: protein assay; remark: listed apart in the source
cells = type: functional
[5] = growth suppression of PTEN-null colon cells, dose response, cell-based, HCT116 PTEN knockout (AID 1047); type: functional;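 further: HCT116 colon tumor cells with PTEN knocked out; cells exposed to compound for 60 hours before readout; potency for loss of cell viability measured by luminescence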
Large T antigen = Large T antigen (Simian virus 40, UniProt P03070); type: functional, Betapolyomavirus macacae;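 further: Confirmatory-stage PubChem screen for compounds that inhibit SV40 T antigen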
HEK293 [6] = experiment: cells; type: functional, cell-based; settings: Homo sapiens
HEK293 [7] = experiment: NOD2 signaling inhibitors in MDP-stimulated cells, cell-based, uHTS, luminescence (AID 2001); type: functional; settings: Homo sapiens
[8] = target: T2, Carboxy-terminal domain RNA polymerase II polypeptide A small phosphatase 1 (Homo sapiens, UniProt Q9GZU7); experiment: inhibitors of CTDSP1, concentration-response testing, biochemical assay, absorbance-based, actives from ultra-high-throughput screening (AID 540297); type: functional
T2 sequence (Q9GZU7 whole entry): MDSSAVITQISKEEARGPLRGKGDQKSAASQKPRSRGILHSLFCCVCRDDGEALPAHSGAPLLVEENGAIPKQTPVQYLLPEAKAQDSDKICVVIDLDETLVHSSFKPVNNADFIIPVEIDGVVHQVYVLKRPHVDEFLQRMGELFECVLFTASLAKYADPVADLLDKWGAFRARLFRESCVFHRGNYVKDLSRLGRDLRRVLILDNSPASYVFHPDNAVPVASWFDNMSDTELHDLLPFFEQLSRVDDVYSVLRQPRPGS

HEK293 [9] = experiment: cells; type: functional, cell-based; settings: Homo sapiens; remark: listed apart in the source
HEK293 [10] = experiment: cells; type: functional, cell-based; settings: Homo sapiens; remark: listed apart in the source
HEK293 [11] = experiment: NOD1 signaling inhibitors, primary screen, cell-based, luminescence, uHTS (AID 1578); type: functional; settings: Homo sapiens
[12] = target: Nucleotide-binding oligomerization domain-containing protein 2 (Homo sapiens, UniProt Q9HC29); experiment: NOD2 signaling inhibitors, cell-based, luminescence, uHTS, HEK293 (AID 1566); type: functional
Nucleotide-binding oligomerization domain-containing protein 2, sequence (Q9HC29 whole entry, the tested form may be a part): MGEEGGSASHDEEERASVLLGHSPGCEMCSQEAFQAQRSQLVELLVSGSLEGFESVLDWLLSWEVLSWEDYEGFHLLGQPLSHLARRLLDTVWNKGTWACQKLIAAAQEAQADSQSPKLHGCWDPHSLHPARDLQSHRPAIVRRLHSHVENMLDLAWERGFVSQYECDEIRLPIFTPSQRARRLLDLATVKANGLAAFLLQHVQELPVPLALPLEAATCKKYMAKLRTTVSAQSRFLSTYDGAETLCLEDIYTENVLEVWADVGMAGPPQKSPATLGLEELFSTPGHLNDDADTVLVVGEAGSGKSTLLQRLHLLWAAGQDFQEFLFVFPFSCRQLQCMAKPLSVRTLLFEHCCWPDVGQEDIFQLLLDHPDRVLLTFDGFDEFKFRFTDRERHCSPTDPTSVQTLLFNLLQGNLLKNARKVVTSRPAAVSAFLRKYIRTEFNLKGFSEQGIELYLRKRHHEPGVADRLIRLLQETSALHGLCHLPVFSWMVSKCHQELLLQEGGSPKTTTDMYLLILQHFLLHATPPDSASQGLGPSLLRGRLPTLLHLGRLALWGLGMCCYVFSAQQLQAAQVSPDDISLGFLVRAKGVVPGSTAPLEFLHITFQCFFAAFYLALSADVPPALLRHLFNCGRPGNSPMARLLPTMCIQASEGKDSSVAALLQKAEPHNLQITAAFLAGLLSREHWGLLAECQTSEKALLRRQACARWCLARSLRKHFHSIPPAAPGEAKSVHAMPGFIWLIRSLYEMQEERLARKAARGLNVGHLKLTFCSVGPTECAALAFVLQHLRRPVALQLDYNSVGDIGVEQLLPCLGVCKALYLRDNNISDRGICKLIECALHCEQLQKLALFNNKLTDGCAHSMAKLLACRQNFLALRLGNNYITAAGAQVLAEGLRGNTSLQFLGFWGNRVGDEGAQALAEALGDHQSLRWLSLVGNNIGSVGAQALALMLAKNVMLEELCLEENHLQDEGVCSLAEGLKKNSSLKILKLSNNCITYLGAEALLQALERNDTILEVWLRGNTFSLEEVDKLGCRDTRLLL

[13] = target: Polyadenylate-binding protein 1 (Homo sapiens, UniProt P11940); experiment: PABP poly(A) RNA binding inhibitors, primary screen, biochemical, fluorescence polarization, uHTS (AID 2014)
Polyadenylate-binding protein 1, sequence (P11940 whole entry): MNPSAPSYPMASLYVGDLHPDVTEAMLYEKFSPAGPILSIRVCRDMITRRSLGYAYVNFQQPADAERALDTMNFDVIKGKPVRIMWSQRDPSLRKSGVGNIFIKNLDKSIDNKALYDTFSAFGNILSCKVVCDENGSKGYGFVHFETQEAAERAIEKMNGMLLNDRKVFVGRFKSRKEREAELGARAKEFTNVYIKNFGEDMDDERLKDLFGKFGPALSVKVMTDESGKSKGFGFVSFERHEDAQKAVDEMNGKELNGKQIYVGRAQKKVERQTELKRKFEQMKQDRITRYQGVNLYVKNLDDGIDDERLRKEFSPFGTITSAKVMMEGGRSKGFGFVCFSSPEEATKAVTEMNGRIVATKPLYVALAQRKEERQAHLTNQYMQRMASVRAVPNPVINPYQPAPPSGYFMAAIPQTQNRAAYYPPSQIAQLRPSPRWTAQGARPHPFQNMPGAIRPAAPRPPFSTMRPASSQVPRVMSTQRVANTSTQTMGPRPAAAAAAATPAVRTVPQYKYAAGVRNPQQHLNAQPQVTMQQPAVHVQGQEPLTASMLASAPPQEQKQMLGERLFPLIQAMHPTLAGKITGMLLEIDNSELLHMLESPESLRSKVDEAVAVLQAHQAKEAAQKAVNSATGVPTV

[14] = target: Eukaryotic translation initiation factor 4H (Homo sapiens, UniProt Q15056); experiment: human eIF4H binding inhibitors, primary screen, translation initiation inhibitor project, biochemical, uHTS, fluorescence polarization (AID 2012)
[15] = A cytotoxicity screen of small molecule inhibitors of the PhoP region in Salmonella typhi identified in the primary screen. [Related pubchem assays: 1850, 1864, 1985 ]; type: functional
[16] = target: T3, Short transient receptor potential channel 4 (Mus musculus, UniProt Q9QUQ5); experiment: mouse TRPC4 channel inhibitors, dose response, cell-based, HEK293 TRPC4/mu-opioid, Fluo-4 calcium (AID 434942); type: functional;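 further: potency of inhibitors blocking the TRPC4 calcium response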
T3 sequence (Q9QUQ5 whole entry): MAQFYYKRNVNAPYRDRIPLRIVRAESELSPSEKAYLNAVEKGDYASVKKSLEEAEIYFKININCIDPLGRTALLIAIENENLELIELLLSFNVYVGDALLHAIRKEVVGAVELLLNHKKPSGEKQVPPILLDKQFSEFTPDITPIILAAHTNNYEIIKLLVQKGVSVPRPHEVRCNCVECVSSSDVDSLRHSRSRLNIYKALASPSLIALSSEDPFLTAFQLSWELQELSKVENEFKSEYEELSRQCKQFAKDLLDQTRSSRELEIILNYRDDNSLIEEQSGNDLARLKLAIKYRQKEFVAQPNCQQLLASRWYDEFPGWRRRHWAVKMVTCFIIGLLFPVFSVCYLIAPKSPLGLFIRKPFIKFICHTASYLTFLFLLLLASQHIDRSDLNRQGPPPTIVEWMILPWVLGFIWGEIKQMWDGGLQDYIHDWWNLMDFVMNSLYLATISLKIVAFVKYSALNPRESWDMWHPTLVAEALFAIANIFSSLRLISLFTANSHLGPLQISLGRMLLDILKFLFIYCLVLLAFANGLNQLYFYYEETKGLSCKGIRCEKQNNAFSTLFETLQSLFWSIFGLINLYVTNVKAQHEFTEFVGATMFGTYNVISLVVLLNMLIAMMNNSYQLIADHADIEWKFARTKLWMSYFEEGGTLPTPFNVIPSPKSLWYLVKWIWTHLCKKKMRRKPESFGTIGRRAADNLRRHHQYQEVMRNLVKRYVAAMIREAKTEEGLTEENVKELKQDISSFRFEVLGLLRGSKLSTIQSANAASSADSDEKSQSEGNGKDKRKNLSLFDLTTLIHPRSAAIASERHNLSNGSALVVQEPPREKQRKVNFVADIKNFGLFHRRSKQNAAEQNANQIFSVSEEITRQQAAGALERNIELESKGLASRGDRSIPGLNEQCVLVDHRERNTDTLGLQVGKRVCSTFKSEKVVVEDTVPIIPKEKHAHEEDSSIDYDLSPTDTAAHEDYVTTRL

[17] = A Cell Based Secondary Assay To Explore Cytotoxicity of Compounds that Sensitize Mycobacterium Tuberculosis to Beta-Lactam Antibiotics.; type: functional
[18] = target: DNA damage-inducible transcript 3 protein (Mus musculus, UniProt P35639); type: functional, Cricetulus griseus

T1 sequence (Q00975 whole entry): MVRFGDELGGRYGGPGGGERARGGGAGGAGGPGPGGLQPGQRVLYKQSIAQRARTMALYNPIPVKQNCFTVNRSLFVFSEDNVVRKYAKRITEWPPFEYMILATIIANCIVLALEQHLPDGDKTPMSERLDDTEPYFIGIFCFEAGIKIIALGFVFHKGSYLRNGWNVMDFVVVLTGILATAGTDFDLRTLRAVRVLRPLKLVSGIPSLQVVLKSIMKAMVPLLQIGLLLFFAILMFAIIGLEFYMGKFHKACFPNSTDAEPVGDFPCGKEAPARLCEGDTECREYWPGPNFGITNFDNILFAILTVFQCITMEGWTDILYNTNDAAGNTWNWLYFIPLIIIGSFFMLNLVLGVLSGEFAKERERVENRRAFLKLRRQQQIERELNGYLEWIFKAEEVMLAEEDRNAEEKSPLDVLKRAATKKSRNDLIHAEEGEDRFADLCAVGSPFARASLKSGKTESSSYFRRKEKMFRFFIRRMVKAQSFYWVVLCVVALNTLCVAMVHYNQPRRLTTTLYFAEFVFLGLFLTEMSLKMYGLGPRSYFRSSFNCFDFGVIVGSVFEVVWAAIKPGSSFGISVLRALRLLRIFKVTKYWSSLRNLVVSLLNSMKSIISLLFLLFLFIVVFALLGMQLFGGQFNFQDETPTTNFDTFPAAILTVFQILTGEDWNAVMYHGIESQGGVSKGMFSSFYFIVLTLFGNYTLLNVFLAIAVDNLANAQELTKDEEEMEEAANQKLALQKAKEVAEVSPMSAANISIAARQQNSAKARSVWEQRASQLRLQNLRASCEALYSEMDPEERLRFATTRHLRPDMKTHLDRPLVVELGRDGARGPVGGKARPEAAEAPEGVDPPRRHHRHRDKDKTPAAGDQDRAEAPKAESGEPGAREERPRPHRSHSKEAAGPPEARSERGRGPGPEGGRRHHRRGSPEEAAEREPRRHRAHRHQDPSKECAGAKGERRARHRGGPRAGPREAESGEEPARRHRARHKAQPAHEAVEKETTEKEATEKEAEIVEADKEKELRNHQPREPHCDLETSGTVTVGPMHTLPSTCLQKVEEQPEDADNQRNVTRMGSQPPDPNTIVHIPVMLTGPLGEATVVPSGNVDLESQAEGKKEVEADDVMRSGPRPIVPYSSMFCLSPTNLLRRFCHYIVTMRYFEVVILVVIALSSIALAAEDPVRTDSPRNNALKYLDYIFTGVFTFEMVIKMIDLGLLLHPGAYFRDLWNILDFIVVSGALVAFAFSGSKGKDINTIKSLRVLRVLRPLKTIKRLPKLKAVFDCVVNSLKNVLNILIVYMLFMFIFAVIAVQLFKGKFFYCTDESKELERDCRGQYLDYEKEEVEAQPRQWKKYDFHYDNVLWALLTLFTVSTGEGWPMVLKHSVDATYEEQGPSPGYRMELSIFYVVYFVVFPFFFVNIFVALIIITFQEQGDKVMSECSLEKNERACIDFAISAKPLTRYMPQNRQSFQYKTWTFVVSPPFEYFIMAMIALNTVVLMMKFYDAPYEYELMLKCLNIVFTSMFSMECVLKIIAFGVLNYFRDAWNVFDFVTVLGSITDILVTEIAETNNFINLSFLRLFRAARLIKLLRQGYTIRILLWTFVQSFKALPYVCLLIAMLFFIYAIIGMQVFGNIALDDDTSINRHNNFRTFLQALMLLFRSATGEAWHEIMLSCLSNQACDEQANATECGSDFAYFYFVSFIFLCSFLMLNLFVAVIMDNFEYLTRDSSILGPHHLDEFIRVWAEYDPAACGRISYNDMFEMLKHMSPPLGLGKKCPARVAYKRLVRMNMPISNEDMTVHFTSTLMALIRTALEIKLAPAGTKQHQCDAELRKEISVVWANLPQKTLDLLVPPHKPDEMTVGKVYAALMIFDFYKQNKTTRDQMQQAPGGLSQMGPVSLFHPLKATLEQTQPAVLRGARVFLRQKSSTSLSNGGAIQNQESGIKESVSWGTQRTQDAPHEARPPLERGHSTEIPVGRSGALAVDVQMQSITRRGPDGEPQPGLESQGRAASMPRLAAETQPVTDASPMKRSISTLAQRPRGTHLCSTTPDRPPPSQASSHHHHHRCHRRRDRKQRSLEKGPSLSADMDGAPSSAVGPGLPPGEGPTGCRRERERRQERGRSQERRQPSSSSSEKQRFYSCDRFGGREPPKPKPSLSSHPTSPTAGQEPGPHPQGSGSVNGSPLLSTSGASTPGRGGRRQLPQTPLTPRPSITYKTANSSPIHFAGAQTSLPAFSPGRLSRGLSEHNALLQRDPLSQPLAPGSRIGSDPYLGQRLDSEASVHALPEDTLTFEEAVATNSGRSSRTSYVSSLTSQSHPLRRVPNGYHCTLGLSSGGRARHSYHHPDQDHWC
T1 sequence (Q02410 whole entry): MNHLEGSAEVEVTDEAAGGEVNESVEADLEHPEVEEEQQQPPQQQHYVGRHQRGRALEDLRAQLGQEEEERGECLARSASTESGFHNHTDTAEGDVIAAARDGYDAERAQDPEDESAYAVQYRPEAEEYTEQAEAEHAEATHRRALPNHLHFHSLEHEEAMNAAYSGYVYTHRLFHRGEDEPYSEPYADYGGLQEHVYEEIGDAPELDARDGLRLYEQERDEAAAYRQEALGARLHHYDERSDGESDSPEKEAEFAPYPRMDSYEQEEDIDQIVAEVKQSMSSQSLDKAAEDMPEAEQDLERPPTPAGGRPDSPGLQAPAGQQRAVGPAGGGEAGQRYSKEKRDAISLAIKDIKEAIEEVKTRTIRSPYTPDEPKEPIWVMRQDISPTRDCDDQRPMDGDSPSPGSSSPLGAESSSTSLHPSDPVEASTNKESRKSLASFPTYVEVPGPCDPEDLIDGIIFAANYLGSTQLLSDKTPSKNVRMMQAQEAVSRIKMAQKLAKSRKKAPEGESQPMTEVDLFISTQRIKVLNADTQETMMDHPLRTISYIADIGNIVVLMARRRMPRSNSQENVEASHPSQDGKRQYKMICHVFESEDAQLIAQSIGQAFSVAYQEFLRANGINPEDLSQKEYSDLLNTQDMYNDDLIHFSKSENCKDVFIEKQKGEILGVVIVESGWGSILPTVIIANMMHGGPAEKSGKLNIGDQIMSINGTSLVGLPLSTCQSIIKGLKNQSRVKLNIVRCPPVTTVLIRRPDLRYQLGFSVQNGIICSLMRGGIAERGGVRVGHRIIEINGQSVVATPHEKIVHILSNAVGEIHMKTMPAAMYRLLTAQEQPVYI

Question: Which IC50 [1] does the source give for `Cc1cccc(N2CCN(C(=O)Cn3sc4nc(C)cc(C)c4c3=O)CC2C)c1` (centres undefined) here?
Answer: > 50 µM (inactive)

Question: What about the EC50 [2] of the same compound?
Answer: 17 µM (active)

Question: What about the CC50 [3] of the same compound?
Answer: > 40 µM (active)

Question: What about the IC50 [4] of the same compound?
Answer: 16.7 µM (active)

Question: And the IC50 (cells)?
Answer: 23.8 µM (active)

Question: And the EC50 [5]?
Answer: 17 µM (active)

Question: What about the IC50 (Large T antigen) of the same compound?
Answer: 18.1 µM (active)

Question: Which IC50 (HEK293 [6]) does the source give for `COc1ccc2c(c1)c(=O)oc1c(C)c(OCc3ccc(C(=O)O)cc3)ccc12` here?
Answer: > 20 µM (inactive)

Question: What about the IC50 (HEK293 [7]) of the same compound?
Answer: > 20 µM (inactive)

Question: What about the IC50 [8] of the same compound?
Answer: 2.01 µM (active)

Question: What about the IC50 (HEK293 [9]) of the same compound?
Answer: 14.4 µM (active)

Question: What about the IC50 (HEK293 [10]) of the same compound?
Answer: > 20 µM (inactive)

Question: What about the EC50 (HEK293 [11]) of the same compound?
Answer: > 20 µM (inactive)

Question: And the EC50 [12]?
Answer: > 20 µM (inactive)

Question: What does the source list for `CCn1nc(NC(C)=O)c2cc3cccc(C)c3nc21`?
Answer: IC50 [13]: 7.59 µM (active); IC50 [14]: > 100 µM (inactive)

Question: For `O=C(NC(Cc1ccccc1)c1nc2ccccc2[nH]1)C1CC(=O)N(c2ccc3c(c2)OCCO3)C1` (centres undefined), which IC50 [13] is on record?
Answer: 8.72 µM (active)

Question: What about the IC50 [14] of the same compound?
Answer: 56.2 µM (active)

Question: What about the IC50 [8] of the same compound?
Answer: 41.4 µM (active)

Question: Which EC50 [15] does the source give for `CN1CCc2nc(SCC(=O)Nc3ccc(Cl)cc3)c(C#N)cc2C1` here?
Answer: > 50 µM (active)

Question: With `COC(=O)c1cc2oc(C)cc2n1CC(=O)Nc1ccc(C)c(C)c1` as the compound, how does the EC50 [15] read?
Answer: > 50 µM (active)

Question: With `O=C(c1cccc(C(=O)N2CCN(c3ccc(F)cc3)CC2)c1)N1CCN(c2ccc(F)cc2)CC1` as the compound, how does the EC50 [16] read?
Answer: 0.841 µM (active)

Question: And the CC50 [17]?
Answer: > 40 µM (active)

Question: Which “Absolute IC50 (CHOP)” value [18] does the source give for `CCc1ccc(OCCNC(=O)c2ccccc2SCc2ccccc2)cc1` here?
Answer: 10 µM
